According to patent US9572890B2, “Oral formulations of mitochondrially-targeted antioxidants and their preparation and use” (MITOTECH SA, priority 2011, dated 2017):

Tests used:
[1] = Stability in dark plastic or glass vials (light sensitivity); format: physicochemical
Source text: Accordingly, one of the ways to further improve or increase stability of SkQ liquid compositions during storage and transportation is to protect it from light.

[2] = Storage stability of oxidized SkQ1 formulations (Example 8); format: physicochemical
Experimental: The stability of SkQ1 in the prepared solution was investigated by storage at RT and at 60° C. (Table 4).
The stability of SkQ1 in the prepared solution was investigated by storage at 60° C. (Table 5).
The stability of SkQ1 in the prepared composition was investigated by storage at 4° C. in darkness (Table 6).
The stability of SkQ1 in the prepared composition was investigated by storage at 60° C. in darkness (Table 7).
The stability of SkQ1 in the prepared composition was investigated by storage at RT in darkness (Table 8).
The stability of SkQ1 in the prepared composition was investigated by storage at 60° C. in darkness (Table 9).
The stability of SkQ1 in the prepared composition was investigated by storage at RT in darkness (Table 10).
The stability of SkQ1 in the prepared composition was investigated by storage at 60° C. in darkness (Table 11).

[3] = test system: cytokines (IL-6, IL-8) protein secretion; test: IL-6, IL-8 protein secretion induced by TNF-α in EAhy926 cells (ELISA); format: cell-based, human; conditions: 0.2 nM for 4 d; TNF-α 5 ng/ml for 15 h
Source text: The effects of SkQ1 on ICAM-1 mRNA expression and cytokines (IL-6, IL-8) protein secretion induced by TNF-α in EAhy926 human endothelial cells (ATCC collection; catalog number CRL-2922) were examined. TNF-α is a central proinflammatory cytokine stimulating expression of cell adhesion molecules and many inflammatory cytokines. Anti-inflammatory properties of many drugs often rely on their ability to inhibit expression of pro-inflammatory cytokines induced by TNF-α using EAhy926 endothelial cells (Edgell et al. (1983) Proc. Natl. Acad. Sci. USA, 80:3734-7; Lombardi et al. (2009) Eur. J. Cell. Biol., 88:731-42; Manea et al. (2010) Cell Tissue Res., 340:71-9).
300,000 cells were plated on 60 mm^2 culture dishes and after attachment were treated with an SkQ1 solution (0.2 nM in DMEM medium with 10% fetal serum) for 4 d, and then stimulated with TNF-α (0.05 ng/ml for 4 h for ICAM-1 or 5 ng/ml for 15 h for cytokines, respectively). ICAM-1 mRNA expression was determined by real-time PCR (Okada et al. (2005) Invest. Ophtalmol. Vis. Sci., 46:4512-8). Secretion of IL-6 and IL-8 was evaluated by ELISA (Toma et al. (2009) Biochem. Biophys. Res. Commun., 390:877-82; Volanti et al. (2002) Photochem. Photobiol., 75:36-45.) The data is shown as means±S.E. at least for 3 separate experiments.

alloxan diabetes = test: Alloxan diabetes, blood glucose level (glucose oxidase method); format: in vivo, rats; conditions: 250 nM SkQ1 in drinking water (approx. 50 nmol/kg per day) 10 d before and 14 d after alloxan 100 mg/kg s.c.; 2 weeks after alloxan
Experimental: Induction of the alloxan diabetes was performed as follows: Two groups of laboratory rats (20 animals in each group) with free food and water access fed a 250 nM solution of SkQ1 for 10 d. The daily rat consumption was 60 ml water solution (containing 15 nmoles SkQ1). The average weight of rats was 300 g. Thus, rats consumed approximately 50 nmol/kg body weight per day. […] After 10 d, rats were subcutaneously (in the area of the thigh) injected with alloxan dissolved in isotonic salt solution of 0.9% w/v of NaCl (100 mg/kg body weight; groups “Alloxan+SkQ1” and “Alloxan.” Control animals were injected with salt solution without alloxan (groups “Control+SkQ1” and “Control”). After injection, the rats continued to drink water containing SkQ1 (250 nM) during 14 d (group “Alloxan+SkQ1”) or were kept without SkQ1 (group “Alloxan”). Data on glucose blood level was measured by the glucose oxidase method ([…] et al. (1958) J. Lab. Clin. Med., 51:445-460) after 2 weeks of alloxan injection. All data are presented as the mean+/-SE.

db/db mice = test: Hepatic TBA-reactive substance content (MDA) in db/db diabetic mice; format: in vivo; conditions: SkQ1 in 20% glycerol, 250 nmol/kg per day orally for 12 weeks
Experimental: SkQ1 in 20% glycerol, as described below in Example 8 (250 nmol/kg per day) was orally administered to 10 to 12 week old homozygous db/db mice (n=8), while vehicle db/db (n=8) and non-diabetic control heterozygous db/++ (n=5) mice for 12 weeks. The hepatic TBA-reactive substance content (MDA) was determined by assay according to the method of Mihara et al. ((1978) Anal. Biochem., 86:271-278).

NFκB = NFκB activation caused by TNFα; format: cell-based
Source text: Additionally, SkQ1 decreases the phosphorylation and degradation of IkBa caused by TNFα. NFκB is known to be permanently active in many inflammatory diseases, such as inflammatory bowel disease, arthritis, sepsis, gastritis, asthma and atherosclerosis (Monaco et al. (2004) PNAS., 101:5634-9).

stability [1]: significantly increased
SkQ1, % ([2]; SkQ1 1 mM in 20% glycerol, phosphate buffer pH 4.77, stored at 60° C., day 0): 99.34%
SkQ1, % ([2]; SkQ1 1 mM in 20% glycerol, phosphate buffer pH 4.77, stored at 60° C., day 19): 95.30%
SkQ1, % ([2]; SkQ1 1 mM in 20% glycerol, phosphate buffer pH 4.77, stored at RT, day 0): 99.34%
SkQ1, % ([2]; SkQ1 1 mM in 20% glycerol, phosphate buffer pH 4.77, stored at RT, day 11): 99.71%
SkQ1, % ([2]; SkQ1 1 mM in 20% glycerol, phosphate buffer pH 4.77, stored at RT, day 13): 99.76%
SkQ1, % ([2]; SkQ1 1 mM in 20% glycerol, phosphate buffer pH 4.77, stored at RT, day 14): 99.68%
SkQ1, % ([2]; SkQ1 1 mM in 20% glycerol, phosphate buffer pH 4.77, stored at RT, day 17): 99.62%
SkQ1, % ([2]; SkQ1 1 mM in 20% glycerol, phosphate buffer pH 4.77, stored at RT, day 19): 99.63%
SkQ1, % ([2]; SkQ1 1 mM in 20% glycerol, phosphate buffer pH 4.77, stored at RT, day 21): 99.52%
SkQ1, % ([2]; SkQ1 1 mM in 20% glycerol, phosphate buffer pH 4.77, stored at RT, day 24): 99.57%
SkQ1, % ([2]; SkQ1 1 mM in 20% glycerol, phosphate buffer pH 4.77, stored at RT, day 61): 99.49%
SkQ1, % ([2]; SkQ1 with PEG-4000, solid, 4° C. in darkness, day 18): >99.9%
SkQ1, % ([2]; SkQ1 with PEG-4000, solid, 4° C. in darkness, day 19): 99.83%
SkQ1, % ([2]; SkQ1 with PEG-4000, solid, 4° C. in darkness, day 20): 99.80%
SkQ1, % ([2]; SkQ1 with dextran and p-ABA, solid, 60° C. in darkness, day 0): 97.13%
SkQ1, % ([2]; SkQ1 with dextran and p-ABA, solid, 60° C. in darkness, day 6): 39.22%
SkQ1, % ([2]; SkQ1 with dextran and p-ABA, solid, 60° C. in darkness, day 15): 7.07%
SkQ1, % ([2]; SkQ1 with dextran, solid, 60° C. in darkness, day 0): 96.71%
SkQ1, % ([2]; SkQ1 with dextran, solid, 60° C. in darkness, day 6): 20.66%
SkQ1, % ([2]; SkQ1 with dextran, solid, 60° C. in darkness, day 15): 24.14%
SkQ1, % ([2]; SkQ1 with dextran, solid, 60° C. in darkness, day 25): 18.93%
SkQ1, % ([2]; SkQ1 with myoinosite, solid, RT in darkness, day 0): 95.88%
SkQ1, % ([2]; SkQ1 with myoinosite, solid, RT in darkness, day 5): 96.86%
SkQ1, % ([2]; SkQ1 with myoinosite, solid, RT in darkness, day 6): 95.99%
SkQ1, % ([2]; SkQ1 with myoinosite, solid, RT in darkness, day 15): 92.26%
SkQ1, % ([2]; SkQ1 with p-aminobenzoic acid (p-ABA), solid, RT in darkness, day 0): 100%
SkQ1, % ([2]; SkQ1 with p-aminobenzoic acid (p-ABA), solid, RT in darkness, day 30): 58.42%
SkQ1, % ([2]; presumably SkQ1 in 50% 1,2-propylene glycol with lactic acid (10 eq), 60° C., day 0): >99.9%
SkQ1, % ([2]; presumably SkQ1 in 50% 1,2-propylene glycol with lactic acid (10 eq), 60° C., day 72): 96.6%
SkQ1, % ([2]; presumably SkQ1 in 50% 1,2-propylene glycol with pyruvic acid (10 eq), 60° C., day 0): >99.9%
SkQ1, % ([2]; presumably SkQ1 in 50% 1,2-propylene glycol with pyruvic acid (10 eq), 60° C., day 72): 93.2%
Structure (SMILES): CC1=C(C)C(=O)C(CCCCCCCCCC[P+](c2ccccc2)(c2ccccc2)c2ccccc2)=CC1=O [SkQ1]
expression of inflammatory cytokines (IL-6, IL-8) [3]: prevents excessive expression
blood glucose, lower compared to animals without SkQ1 treatment (alloxan diabetes): about 2 fold
MDA levels in the liver (db/db mice): significantly lowered
activation of NFκB (NFκB): prevent activation
phosphorylation and degradation of IkBa caused by TNFα (NFκB): decreases
translocation of transcription factor p65 (RelA) from the cytoplasm to the nucleus (NFκB): prevent translocation
